In patent US5849326A, “Method for treating neuronal diseases via administration of 2-acylaminopropanol derivatives” (Seikagaku Corporation, priority 1993, dated 1998):

Tests used:
[1] = target: T1, GlcCer (glucosylceramide) synthase (Rattus norvegicus, UniProt Q9R0E0); assay: Enzyme activity in treated cerebral cortex culture: GlcCer synthase; assay type: cell-based; details: culture treated with 15 μM for 40 hours; read-out: Accelerating activity when enzyme activity of control is defined as 100%: GlcCer-synthase
T1 construct: primary culture of cerebral cortex tissue specimens of Wister albino rats; endogenous in cells; host or cells: primary culture of rat (Wistar) cerebral cortex, sonicated after 40 h with compound
T1 sequence (Q9R0E0 1-394): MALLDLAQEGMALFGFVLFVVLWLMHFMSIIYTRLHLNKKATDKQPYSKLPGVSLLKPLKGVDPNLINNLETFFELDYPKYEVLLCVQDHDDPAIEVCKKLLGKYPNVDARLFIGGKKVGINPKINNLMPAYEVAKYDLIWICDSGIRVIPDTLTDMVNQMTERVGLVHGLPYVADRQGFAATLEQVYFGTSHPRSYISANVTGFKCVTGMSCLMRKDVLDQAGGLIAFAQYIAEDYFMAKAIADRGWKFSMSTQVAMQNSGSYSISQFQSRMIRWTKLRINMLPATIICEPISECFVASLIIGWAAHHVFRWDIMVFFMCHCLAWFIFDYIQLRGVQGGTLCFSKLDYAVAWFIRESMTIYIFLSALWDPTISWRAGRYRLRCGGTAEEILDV
Method: After the mixture was cultured for 40 hours, the resulting culture was harvested and pulverized in a homogenized buffer (50 mM Hepes, 0.32M sucrose) by using a chip type sonicator to prepare an enzyme source.
After ^3 H-GlcCer which was a reaction product was extracted with t-butyl methyl ether, the extract was concentrated and evaporated to dryness, and its radioactivity was measured.

explants = assay: Neurite-extending activity in explants (Example 6); assay type: cell-based; details: cultured for 40 hours, FIG. 5
Method: 1.6×10^5 cells/well of explants were sowed in a plate with 24 wells containing a DMEM medium. […] After the mixture was cultured for 40 hours, the resulting culture was fixed and then dyed with Coomassie, and nervous fibers extended to have a length which was longer than a diameter of […] were counted.

## CCCCCCCCCC(=O)N[C@@H](CN1CCOCC1)[C@@H](O)c1ccccc1 [L-threo-PDMP, 1-phenyl-2-decanoylamino-3-morpholino-1-propanol]
[1]
  enzyme activity relative to control at 15 µM: 122%
explants
  concentration at which extension of neurites was the largest: 15 µM
explants; read-out: concentration at which extension of neurites was observed
  minimal effective concentration: ≥ 5 µM
